According to patent publication US20050009837A1, “Modulators of lipid metabolism and methods of use” (City of Hope, priority 2003, published 2005):

Legend:
[1] = target: T1, ligand binding domain of LXRα-RXR heterodimers (Homo sapiens, UniProt Q13133); test: LXR ligand binding domain mediated activity, UASGx4 TK-Luc reporter in CV-1 cells; format: cell-based; conditions: 20 μM
T1 construct: expressed in transfected cells; host or cells: CV-1 cells
T1 sequence (Q13133 209-447 limits assumed): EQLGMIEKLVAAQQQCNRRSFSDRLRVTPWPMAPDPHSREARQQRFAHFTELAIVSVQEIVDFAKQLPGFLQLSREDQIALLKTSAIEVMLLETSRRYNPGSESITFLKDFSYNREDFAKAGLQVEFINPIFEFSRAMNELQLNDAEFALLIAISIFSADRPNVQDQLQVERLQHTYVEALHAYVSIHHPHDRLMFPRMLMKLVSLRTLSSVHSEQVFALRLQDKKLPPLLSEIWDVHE
T1 sequence (P19793 227-458 partner limits assumed): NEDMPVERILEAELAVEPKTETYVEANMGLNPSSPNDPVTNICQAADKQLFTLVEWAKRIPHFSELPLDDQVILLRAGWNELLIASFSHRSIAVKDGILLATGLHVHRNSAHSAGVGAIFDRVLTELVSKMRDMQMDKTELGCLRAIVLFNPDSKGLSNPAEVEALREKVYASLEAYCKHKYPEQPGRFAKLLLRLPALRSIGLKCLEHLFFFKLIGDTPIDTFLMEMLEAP
Procedure: CV-1 cells were grown in DMEM supplemented with 10% resin-charcoal stripped fetal bovine serum, 50 U/ml penicillin G and 50 μg/ml streptomycin sulfate at 37° C. in 5% CO2. Cells were plated to 50-80% confluence one day prior to transfection using phenol red-free DMEM-FBS. The cells were transfected by lipofection using N-[1-(2,3-dioleoyloxy)propyl]-N,N,N-ammonium methyl sulfate according to manufacturer's instructions (Boehringer Mannheim).
Genes encoding the following full-length proteins, which are suitable for use in the studies described herein, were cloned into pCMX: human RXRα (Gene Bank accession X52773) and human LXRα (GenBank accession U22662). The cells were transfected with CMX-βgal and luciferase constructs. The CMX-βGal construct contained the ligand binding domain of human RXR (hRXRα) and the ligand binding domain of human LXRα (hLXRα) as indicated in FIG. 1. The luciferase reporter construct (LXREx3 TK-Luc) contained the herpes virus thymidine kinase promoter (−105/+51) linked to three copies of the response element LXRE. After transfection, the cells were treated with 20 μM of a synthetic azole test compound or vehicle alone for 40 hours in phenol red-free DMEM-FBS. After exposure to the candidate antagonist compounds, cells were harvested and assayed for luciferase and β-galactosidase activity.
The reporter gene was UASGx4 TK-Luc.

LXRβ = target: T2, LXRβ (Homo sapiens, UniProt P55055); test: Transient transfection assay Gal-LXRβ + RXR LBD, UASGx4 TK Luc reporter, CV-1 cells; format: cell-based
T2 construct: expressed in transfected cells; host or cells: CV-1 cells
T2 sequence (P55055 222-460 limits assumed): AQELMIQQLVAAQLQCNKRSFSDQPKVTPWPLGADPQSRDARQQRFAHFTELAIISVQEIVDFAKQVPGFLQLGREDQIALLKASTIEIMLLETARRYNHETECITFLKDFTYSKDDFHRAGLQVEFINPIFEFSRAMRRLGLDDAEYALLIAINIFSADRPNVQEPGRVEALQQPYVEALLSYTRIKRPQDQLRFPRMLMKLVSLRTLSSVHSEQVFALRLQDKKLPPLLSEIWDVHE
T2 sequence (P19793 227-458 partner limits assumed): T1 sequence (P19793 227-458 partner limits assumed)
Procedure: Synthetic compounds were screened in an effort to find more specific LXR inhibitors. CV-1 cells were maintained and transfected using known methods. Forman et al., Cell 81: 687-693, 1995. CV-1 cells were transiently transfected with Gal-hLXRα, the RXR LBD, the UASGx4 TK Luc reporter and CMX-β-gal as an internal control, either in standard or in lipid-stripped serum. After transfection, cells were treated for approximately 40 hours with phenol red-free DMEM-FBS containing the indicated compounds at the following concentrations: T0901317 (100 nM), Clotrimazole (10 μM), S883417(10 μM) and S100250 (10 μM), unless otherwise specified. After exposure to ligand, the cells were harvested and assayed for luciferase and β-galactosidase activity. The luciferase activity was normalized to the internal β-galactosidase control (reporter activity).
The ability of these compounds to repress LXRα and LXRβ was compared by transfecting CV-1 cells with either the RXR LBD alone or the RXR LBD together with either Gal-LXRα or Gal-LXRβ.
Transfections were performed as described above, with increasing concentrations of Clotrimazole.

[2] = target: T3, LXRα-RXR heterodimers / SRC-1 (Homo sapiens, UniProt Q13133); test: In vitro coactivator recruitment/displacement assay (gel), LXRα, RXR, GST-SRC-1, 32P-LXRE probe; format: biochemical; conditions: 10 μM
T3 construct: made in house; host or cells: receptors translated in vitro
Procedure: This was tested more directly using an in vitro coactivator recruitment/coactivator displacement assay. This assay has the advantage that it is performed with receptors bound to DNA and that it measures a direct interaction between receptor and coactivator with no interference by other proteins that may indirectly stabilize the complex. The assay was performed by mixing in vitro translated LXRα or LXRβ, RXR, 5 μg of purified GST-SRC-1 and a ^32P-labeled LXRE probe with or without 10 μM Clotrimazole according to previously described methods. Wang et al., Mol. Cell 3:543-553, 1999. The complexes then were separated through 5.5% polyacrylamide gels. The probe used represents a DR-4 element derived from the human SREBP-1c promoter (nt 337-361, accession no. AB046200).

[3] = system: −241/+12 mSREBP-1c promoter; test: SREBP-1c promoter reporter assay in CV-1 cells; format: cell-based; conditions: 10 μM
Procedure: This promoter is directly regulated by LXR via two LXREs present within the first 240 base pairs of the proximal promoter. Thus, we transfected CV-1 cells with the −241/+12 mSREBP-1c promoter along with LXRα or LXRβ. CV-1 cells were transiently transfected with full length LXRα or LXRβ, the SREBP-1c promoter or the SREBP-1c LXREm reporter and CMX-β-gal (as an internal control) in lipid-stripped serum. After transfection, the cells were treated with 10 μM Clotrimazole. The luciferase activity was normalized to the internal β-galactosidase control (reporter activity).

NIH 3T3-L1 cells = test: Toxicity in NIH 3T3-L1 cells during differentiation; format: cell-based; conditions: 200 nM T0901317, 7.5 μM Clotrimazole or both, 7 days
Procedure: NIH 3T3-L1 cells were maintained in growth media consisting of Dulbecco's modified Eagle's medium (DMEM) supplemented with 10% calf bovine serum (CBS), 50 U/ml penicillin G and 50 μg/ml streptomycin sulfate. To induce NIH 3T3-L1 differentiation into adipocytes, confluent cells were transferred from their growth media to DMEM containing 10% fetal bovine serum (FBS), 5 μg/ml insulin, 0.5 mM 3-isobutyl-1-methylxanthine (IBMX) and 1 μM dexamethasone for 7 days. During the differentiation period, cells also optionally received 200 nM T0901317, 7.5 μM Clotrimazole or both.

T3 sequence (Q13133 whole entry): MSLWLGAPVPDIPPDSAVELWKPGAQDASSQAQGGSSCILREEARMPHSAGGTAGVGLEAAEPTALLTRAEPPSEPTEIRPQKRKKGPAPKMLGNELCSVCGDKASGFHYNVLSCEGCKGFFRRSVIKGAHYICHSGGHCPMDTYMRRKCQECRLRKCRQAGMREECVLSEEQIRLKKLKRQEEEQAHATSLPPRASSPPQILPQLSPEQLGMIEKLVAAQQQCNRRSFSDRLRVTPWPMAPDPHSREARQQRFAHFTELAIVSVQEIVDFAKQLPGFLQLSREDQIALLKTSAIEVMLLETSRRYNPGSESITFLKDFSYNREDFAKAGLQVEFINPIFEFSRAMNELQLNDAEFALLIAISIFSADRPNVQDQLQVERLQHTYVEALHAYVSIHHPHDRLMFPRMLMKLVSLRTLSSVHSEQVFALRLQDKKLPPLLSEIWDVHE
T3 sequence (P19793 whole entry partner): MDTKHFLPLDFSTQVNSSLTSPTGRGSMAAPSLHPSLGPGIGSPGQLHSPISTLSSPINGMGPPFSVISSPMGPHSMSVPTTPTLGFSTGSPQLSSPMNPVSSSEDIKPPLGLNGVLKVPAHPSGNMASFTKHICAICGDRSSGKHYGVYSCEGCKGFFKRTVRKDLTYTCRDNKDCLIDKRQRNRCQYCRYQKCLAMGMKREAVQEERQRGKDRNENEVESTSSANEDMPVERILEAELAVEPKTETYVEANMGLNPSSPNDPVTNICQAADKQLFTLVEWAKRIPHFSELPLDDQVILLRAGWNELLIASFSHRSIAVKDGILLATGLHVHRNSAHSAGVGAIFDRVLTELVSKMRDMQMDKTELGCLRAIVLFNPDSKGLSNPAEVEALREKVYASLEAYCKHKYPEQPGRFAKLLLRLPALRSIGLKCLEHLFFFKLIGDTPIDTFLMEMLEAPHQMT

**Q.** `Clc1ccccc1C(c1ccccc1)(c1ccccc1)n1ccnc1` [Clotrimazole] was tested. Which “inhibition of constitutive activation by the LXRα-RXR ligand binding domain (UASGx4 TK-Luc)” value [1] did it give?
**A.** inhibit constitutive activation

**Q.** What about the “repression of LXRβ activity” value (LXRβ; 10 μM, approximately 40 hours, lipid-stripped serum) of the same compound?
**A.** powerful antagonist

**Q.** And the EC50 (LXRβ; dose-response, increasing concentrations, read-out: EC50 for repression of LXRβ constitutive activity)?
**A.** ~10 µM

**Q.** What about the “effect on LXRα-RXR heterodimers (bound to LXRE probe)” value ([2]; lane 3) of the same compound?
**A.** no effect

**Q.** And the “interaction of LXRα-RXR with SRC-1” value ([2]; lane 4)?
**A.** prevented the interaction with SRC-1

**Q.** What about the SREBP-1c promoter activity ([3]; absence of LXR, lipid-stripped serum) of the same compound?
**A.** repressed

**Q.** And the “SREBP-1c LXREm mutant promoter activity” value ([3]; both LXREs inactivated, absence or presence of LXR)?
**A.** did not repress the promoter activity

**Q.** What about the “LXRα-induced SREBP-1c promoter activity” value ([3]; co-transfected LXRα) of the same compound?
**A.** repressed the LXR-induced activity

**Q.** And the “LXRβ-induced SREBP-1c promoter activity” value ([3]; co-transfected LXRβ)?
**A.** repressed the LXR-induced activity

**Q.** And the toxicity (NIH 3T3-L1 cells)?
**A.** No toxicity
